# From patent US20260216347A1, “Substituted Imidazo-Based Compounds as Ligand Directed Degraders of IRAK3” (Celgene Corporation, priority 2022, published 2026)
# How the values were obtained:
# IRAK3-ePL = biological target: T1, IRAK3-ePL (Homo sapiens, UniProt Q9Y616); assay: IRAK3-ePL overexpressing degradation assay (InCELL Hunter luminescence, dose response); type: cell-based; conditions: for IRAK3 ePL degradation Ymin: lowest percentage of target protein remaining following compound treatment; for DC50: read-out: IRAK3 ePL degradation EC50
# T1 construct: expressed in transfected cells; host or cells: 293T CRBN OE/GSPT1 G575N KI cells, lentiviral transduction, puromycin selected
# Protocol: Example B1. IRAK3-ePL Overexpressing Degradation Assay
# Stable cell lines were generated by the following protocol. 3×10^5 Lenti-X 293T cells (Clonetech) were plated in 0.8 mL of media in a 12-well plate and incubated overnight at 37° C./5% CO2. Packaging plasmid (0.4 μg, pMD), envelope plasmid (0.4 μg, pSP), and lentiviral transfer IRAK3-ePL plasmid (0.8 μg, TRAK3 sequence NM_007199.3) were mixed in 0.1 mL of Opti-MEM and incubated for 5 min. Simultaneously, 2.4 μL of Lipofectamine 2000 (Invitrogen) was added to 0.1 mL of Opti-MEM (Gibco) and incubated for 5 min. The plasmid DNA and lipofectamine were combined and the mixture was allowed to incubate for 20 min.DNA:Lipofectamine Opti-MEM mixtures were then added to previously plated cells dropwise and the cells were incubated for ~16 h at 37° C./5% CO2. Following incubation, the media was removed and 1.2 mL of fresh media was added per well. Lenti-X 293T cells were incubated for ~30 h at 37° C./5% CO2. […] Following incubation, media was removed from the Lenti-X 293T wells and passed through a […] filter. Part of the viral supernatant was used to transduce cells and the rest was stored at −80° C. Viruses were then added individually (0.5 mL virus) to each well of the 293T^CRBN OE/GSPT1 G575N KI cells, followed by addition of polybrene (10 mg/mL Millipore) to each well at a final concentration of 5.0 μg/mL. Cells were incubated for ~24 h at 37° C./5% CO2. After aspirating media off plates, cells were washed with DPBS, trypsinized and plated in a 10 cm dish in 15 mL of media and […] puromycin. Following incubation of cells for ~72 h at 37° C./5% CO2, media was aspirated off plates, and cells were washed with DPBS and trypsinized. The cells were plated in a 15 cm dish in 40 mL of media with 1.0 μg/mL Puromycin (Gibco) and incubated for ~72 h at 37° C./5% CO2. Following incubation, media was removed and cells were washed with DPBS and trypsinized. The majority of cells were resuspended in Invitrogen freezing media and stored away (~6-8×10^6 cells/vial).
# IRAK3-ePL cellular dose response curve degradation assays were performed by the following protocol. Compounds to be tested were dispensed into a white 384-well tissue-culture treated plate using an acoustic liquid handler. Dilutions were prepared based on a 25 μL assay volume in duplicate 10 point 3-fold serial dilutions starting with a 10 μM dose. Negative control wells were included, which only contain 0.2% DMSO to calculate 100% signal. Positive control wells containing 30 μM Ataluren (luciferase inhibitor) were included to calculate the background signal level. All wells were backfilled to a final DMSO concentration of 0.2% to ensure DMSO uniformity across wells. IRAK3-ePL expressing cells (IRAK3-ePL Lenti-X 293T^CRBN/GSPT1 G575N) were washed, trypsinized, counted, and resuspended in fresh DMEM (Gibco) to give a cell concentration of 200,000 cells/mL. 25 μL of cells (5,000 cells/well) were dispensed into the wells of the 384-well plate prespotted with compounds in the previous step and incubated overnight at 37° C./5% CO2. Following incubation, the 384-well plate was taken out of the incubator and left at room temperature for 30 min. InCELL hunter reagent was prepared according to manufacturer's instructions (EA reagent, lysis buffer, and substrate reagent in a 1:1:4 ratio, Cat #96-0002, DiscoverX), which was added to the 384-well plate 25 μL per well. Following the incubation of the plate for 1 h at room temperature, the luminescence signal was read using a ViewLux plate reader. Data was processed and analyzed in ActivityBase software. In short, the average luminescence values of the positive control wells were subtracted from the rest of the wells for background correction, and all luminescence values were normalized to the DMSO control wells. The average value of the DMSO control wells was set to equal 100% of the relative IRAK3-ePL protein levels. […]
# IRAK3 [1] = biological target: T2, IRAK3 (Homo sapiens, UniProt Q9Y616); assay: IRAK3 biochemical binding assay (LanthaScreen Eu Kinase Binding, TR-FRET)
# T2 construct: IRAK Endogenous HTRF Degradation Assay; endogenous in cells
# T2 sequence (Q9Y616 1-596): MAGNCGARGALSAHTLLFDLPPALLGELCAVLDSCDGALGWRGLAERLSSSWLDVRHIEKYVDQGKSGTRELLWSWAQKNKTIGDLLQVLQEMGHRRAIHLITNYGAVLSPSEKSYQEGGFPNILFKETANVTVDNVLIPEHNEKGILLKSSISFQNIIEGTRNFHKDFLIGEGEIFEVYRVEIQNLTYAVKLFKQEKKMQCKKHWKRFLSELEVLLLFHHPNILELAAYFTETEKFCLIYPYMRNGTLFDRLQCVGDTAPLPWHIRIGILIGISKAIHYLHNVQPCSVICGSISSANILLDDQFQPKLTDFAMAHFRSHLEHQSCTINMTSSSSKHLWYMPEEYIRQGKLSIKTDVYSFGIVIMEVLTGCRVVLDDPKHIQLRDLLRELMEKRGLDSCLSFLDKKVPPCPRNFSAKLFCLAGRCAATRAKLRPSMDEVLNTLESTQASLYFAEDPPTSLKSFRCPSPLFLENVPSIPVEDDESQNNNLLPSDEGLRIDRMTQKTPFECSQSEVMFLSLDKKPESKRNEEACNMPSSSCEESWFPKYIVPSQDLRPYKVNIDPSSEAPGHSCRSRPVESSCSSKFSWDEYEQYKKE
# Method in brief: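 TR-FRET tracer-displacement binding with 10 nM IRAK3, 2 nM Eu-anti-GST antibody and 10 nM tracer in 50 mM HEPES pH 7.4, MgCl2, 1 mM EGTA, 0.01% Brij-35. Compounds in 3-fold dilutions, 1 h at room temperature. 665/615 nm ratio gave % inhibition; IC50 and Hill slope from dose-response fit.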
# IRAK3 [2] = biological target: T2, IRAK3; assay: IRAK endogenous HTRF degradation assay (Total-IRAK3 HTRF kit); type: cell-based; conditions: overnight incubation, lowest percentage of protein remaining
# Protocol: Example B2. IRAK Endogenous HTRF Degradation Assay
# Cells (~50 k) were plated in Cisbio 96-well low volume white plates (Cisbio: cat #66PL96005). Compounds were dissolved in DMSO and a 3-fold serial dilution was performed using a TECAN D300E. Cells were incubated with the compound overnight. Total-IRAK3 HTRF kit from Cisbio was used for degradation analysis (Cisbio: 63ADK101PEH). Cryptate and D2 antibodies were diluted in Detection buffer as per manufacturers recommendation. Then 2 μL of each solution was added to 16 μL lysate. Buffer control (lysis buffer detection buffer), Cryptate control (lysis buffer+cryptate antibody+detection buffer), and Negative control (lysis buffer+cryptate antibody+D2 antibody) were made as per manufacturers recommendation. Post incubation with antibodies the HTRF signal was measured using a Perkin Elmer Envision reader and the HTRF signal was calculated using formula: (Emission at 665 nm/Emission at 615 nm)*10,000. All HTRF values were normalized to the average value of DMSO. The average value of the DMSO control wells were set to equal 100% of the relative IRAK3 protein levels. Normalized luminescence values were plotted on a graph as a function of compound concentration. Compound concentration was plotted on the x-axis and the corresponding normalized IRAK3 protein levels on the y-axis. The EC50 value (the half-maximum effective concentration) of a compound for the degradation of the IRAK3 was calculated using a four-parameter logistic model (sigmoidal dose-response model) (FIT=(A+{(B−A)/1+[(C/x)D]})) where C is the inflection point (EC50), D is the […], and A and B are the low and high limits of the fit, respectively). The Ymin was calculated by determining the lowest percentage of target protein remaining following compound treatment. Dmax was calculated from Ymin (% Dmax=100−Ymin).
# Using these assays, IC50, Dmax, EC50, and DC50 values of the following compounds were determined. Dmax is defined as the maximum percent degradation achieved and DC50 is the concentration at which 50% degradation is achieved.
SMILES,IRAK3 ePL degradation Ymin (IRAK3-ePL) [%],DC50 (IRAK3-ePL) [nM],IC50 (IRAK3 [1]) [nM],IRAK3 HTRF degradation Ymin (IRAK3 [2]) [%]
"Cc1cccc(-c2cnc(Nc3cnn(C4CCN(CCN5CCN(c6ccc(C7CCC(=O)NC7=O)cc6)CC5)CC4)c3)c3nccn23)c1 (stereo not drawn) [Compound 5, 3-(4-(4-(2-(4-(4-((5-(m-tolyl)imidazo[1,2-a]pyrazin-8-yl)amino)-1H-pyrazol-1-yl)piperidin-1-yl)ethyl)piperazin-1-yl)phenyl) piperidine-2,6-dione]",14,1,5.9,
"O=C1CCC(c2ccc(N3CCN(CCN4CCC(n5cc(Nc6ncc(-c7ccc8c(c7)NC(=O)CO8)n7ccnc67)cn5)CC4)CC3)cc2)C(=O)N1 (stereo not drawn) [Compound 15, 3-(4-(4-(2-(4-(4-((5-(3-oxo-3,4-dihydro-2H-benzo[b][1,4]oxazin-6-yl)imidazo[1,2-a]pyrazin-8-yl)amino)-1H-pyrazol-1-yl)piperidin-1-yl)ethyl)piperazin-1-yl)phenyl) piperidine-2,6-dione]",15,0.51,6.4,
"Cc1cccc(-c2cnc(Nc3cnn(C4CCN(CC(=O)N5CCN(c6ccc(C7CCC(=O)NC7=O)cc6)CC5)CC4)c3)c3nccn23)c1 (stereo not drawn) [Compound 20, 3-(4-(4-(2-(4-(4-((5-(m-tolyl)imidazo[1,2-a]pyrazin-8-yl)amino)-1H-pyrazol-1-yl)piperidin-1-yl)acetyl)piperazin-1-yl)phenyl)piperidine-2,6-dione]",16,0.77,2.9,
"O=C1CCC(N2C(=O)c3ccc(N4CCN(C(=O)CN5CCC(n6cc(Nc7ncc(-c8ccc9c(c8)NC(=O)CO9)n8ccnc78)cn6)CC5)CC4)cc3C2=O)C(=O)N1 (stereo not drawn) [Compound 21, 2-(2,6-dioxopiperidin-3-yl)-5-(4-(2-(4-(4-((5-(3-ox0-3,4-dihydro-2H-benzo[b][1,4]oxazin-6-yl)imidazo[1,2-a]pyrazin-8-yl)amino)-1H-pyrazol-1-yl)piperidin-1-yl)acetyl)piperazin-1-yl)isoindoline-1,3-dione]",,,,25
"C[C@@H]1CN(c2ccc(C3CCC(=O)NC3=O)cc2)CCN1CCN1CCC(n2cc(Nc3ncc(C4CC4)n4ccnc34)cn2)CC1 (stereo partly drawn) [Compound 32, 3-(4-((R)-4-(2-(4-(4-((5-cyclopropylimidazo[1,2-a]pyrazin-8-yl)amino)-1H-pyrazol-1-yl)piperidin-1-yl)ethyl)-3-methylpiperazin-1-yl)phenyl) piperidine-2,6-dione]",23,1.4,36,
"Cc1cc(-c2cnc(Nc3cnn([C@H]4CCN(CCN5CCN(c6ccc(C7CCC(=O)NC7=O)cc6)C[C@@H]5C)[C@@H](C)C4)c3)c3nccn23)c(F)cc1F (stereo partly drawn) [Compound 34, 3-(4-((S)-4-(2-((2S,4S)-4-(4-((5-(2,4-difluoro-5-methylphenyl)imdazo [1,2-a]pyrazin-8-yl)amino)-1H-pyrazol-1-yl)-2-methylpiperidin-1-yl)ethyl)-3-methylpiperazin-1-yl)phenyl) piperidine-2,6-dione]",23,1.7,1.5,
"Cc1ccc(-c2cnc(Nc3cnn(C4CCN(CCN5CCN(c6ccc(C7CCC(=O)NC7=O)cc6)CC5)CC4)c3)c3nccn23)cc1 (stereo not drawn) [Compound 78, 3-(4-(4-(2-(4-(4-((5-(p-tolyl)imidazo[1,2-a]pyrazin-8-yl)amino)-1H-pyrazol-1-yl)piperidin-1-yl)ethyl)piperazin-1-yl)phenyl) piperidine-2,6-dione]",29,5.5,27,
"Cc1ccccc1-c1cnc(Nc2cnn(C3CCN(CCN4CCN(c5ccc(C6CCC(=O)NC6=O)cc5)CC4)CC3)c2)c2nccn12 (stereo not drawn) [Compound 79, 3-(4-(4-(2-(4-(4-((5-(o-tolyl)imidazo[1,2-a]pyrazin-8-yl)amino)-1H-pyrazol-1-yl)piperidin-1-yl)ethyl)piperazin-1-yl)phenyl) piperidine-2,6-dione]",29,29,260,
"CS(=O)(=O)c1ccccc1-c1cnc(Nc2cnn(C3CCN(CCN4CCN(c5ccc(C6CCC(=O)NC6=O)cc5)CC4)CC3)c2)c2nccn12 (stereo not drawn) [Compound 83, 3-(4-(4-(2-(4-(4-((5-(2-(methylsulfonyl)phenyl)imidazo[1,2-a]pyrazin-8-yl)amino)-1H-pyrazol-1-yl)piperidin-1-yl)ethyl)piperazin-1-yl)phenyl) piperidine-2,6-dione]",90,,1600,
